We go through two molecules from patent US9370508B2, “Imidazoquinolines as dual lipid kinase and mTOR inhibitors” (NOVARTIS AG, priority 2007, dated 2016).

pIC50: −log10 of the molar value.

The test system of assay [1] is ribosomal protein S6 phosphorylation. Kind of assay: 96-well in-cell western assay of ribosomal protein S6 phosphorylation in HeLa cells. In kind it is cell-based. Particulars: Homo sapiens, 1 h, 60 min stimulation with nutrients in the presence or absence of 100 nM insulin, anti-phospho(Ser235-236)S6, read-out: induced phosphorylation of S6, mean IC50. On the procedure:
A 96-well “in-cell western” assay is used to quantitate the levels of ribosomal protein S6 phosphorylation following treatment of HeLa cells with compounds. HeLa cells are seeded on to 96-wells plates (5000 cells/well), cultured for 72 h prior to serum deprivation for 18 h, in a humidified environment of 5% CO2 at 37° C. throughout. Thereafter, they are incubated in 200 μL of starve-medium for 180 min prior to a 60 min stimulation with 200 μL of test-medium. All solutions are pre-warmed for 30 min; the 96-well plates are sealed (Millipore) and incubated in a non-CO2 incubator at 37° C. during the starvation and stimulation protocol. […] After a 48 h blocking step in Tris buffered saline pH=7.2 containing 0.1% Triton-X100 and 0.1% bovine serum albumin, at 4° C., fixed cells are incubated overnight at 4° C. with the anti-phospho(Ser235-236)S6 primary antibody (Cell Signaling Technologies #2211 [can be substituted with Cell Signaling Technologies #2215 to quantitate S6 phosphorylation at Ser240-244]; 50 μL at 1:300 in blocking-solution), washed (8×200 μL TBS) before 100 μL of europium-labeled anti-rabbit secondary antibody (Perkin-Elmer; 2.4 μg/mL) is added for 90 min at room temperature in the dark. After a final wash (8×200 μL TBS), 100 μL of Delphia™ Enhancement-solution is added to each well and the fluorescence quantified 120 min later using an Envision 2101 (Perkin-Elmer). […]

The target of another assay is T1, mTOR enzyme (Homo sapiens, UniProt P42345).
T1 construct: purchased Calbiochem CBA055
As to the kind of experiment: K-LISA mTOR activity kit biochemical assay. As to conditions: GST-S6K1 substrate, 100 μM ATP, 30 minutes at 30° C., anti-phospho Thr389 detection; read-out: mTOR kinase activity, mean IC50.

Description for mTOR enzyme: This mixture is then transferred to a glutathione-coated 96-well plate pre-incubated with GST-S6K1 recombinant protein. Kinase reactions are initiated by adding kinase buffer containing 100 μM ATP and are incubated for 30 minutes at 30° C. mTOR activity is quantitated using an anti-phospho Thr389-HRP conjugate detection system. Wortmannin served as control compound for the mTOR kinase activity assay.

Consider `Cn1c(=O)n(-c2ccc(C(C)(C)C#N)cc2)c2c3cc(-c4cnc5ccccc5c4)ccc3ncc21` [compound 1, 2-Methyl-2-[4-(3-methyl-2-oxo-8-quinolin-3-yl-2,3-dihydro-imidazo[4,5-c]quinolin-1-yl)-phenyl]-propionitrile], for which, in assay [1], the pIC50 (commonly the negative decadic logarithm of the IC50, by convention in mol/L) is 7.77.

Turning to `COc1ccc(-c2ccc3ncc4c(c3c2)n(-c2ccc(N3CCNCC3)c(C(F)(F)F)c2)c(=O)n4C)cn1` [compound 2, 8-(6-Methoxy-pyridin-3-yl)-3-methyl-1-(4-piperazin-1-yl-3-trifluoromethyl-phenyl)-1,3-dihydro-imidazo[4,5-c]quinolin-2-one], the results for the pIC50 (at mTOR enzyme; in assay [1]) were 8.85 and 7.96, respectively.
